According to patent US7943382B2, “Method for inspecting fat-soluble vitamin and/or fat-soluble food factor by saliva analysis” (Mitsubishi Chemical Medience Corporation, priority 2004, dated 2011):

Legend:
[1] = Transition of the lycopene and β-carotene levels in parotid saliva on ingestion of lycopene + β-carotene MAX1; format: in vivo, human; conditions: lycopene + β-carotene MAX1, two tablets (20 mg lycopene, 60 mg β-carotene) every morning for a week, then two weeks discontinuation; FIGS. 9 and 10
Protocol: 2 of 3 volunteers were made to ingest orally two commercial supplement lycopene +β-carotene MAX1 (trade name, Minami Healthy Food Co.) containing 10 mg of lycopene and 30 mg of β-carotene per one tablet (20 mg of lycopene and 60 mg of β-carotene per two tablet) at 7:00 every morning continuously for a week, and as a specimen, parotid saliva was collected from PM 4:00 to 5:00, three times, that is, before ingestion and one week after ingestion and two weeks after discontinuation of ingestion. The volunteer had the mouth rinsed with water, and kept quiet on a chair for 5 minutes, while the volunteer accumulated saliva in the oral cavity and discharged to initialize the oral cavity, followed by collecting saliva. […] The ingestion states of the supplement, that is, before ingestion and one week after ingestion, and two weeks after discontinuation of ingestion, are arranged on the horizontal axis as points, and the concentrations of lycopene and β-carotene (hereinafter, the measured concentrations of lycopene and β-carotene will be referred to “lycopene level” and “β-carotene level” respectively) in parotid saliva are arranged on the vertical axis, and transition of the lycopene and β-carotene levels in parotid saliva depending on ingestion of supplements is shown in FIGS. 9 and 10.

[2] = cited from earlier work
[3] = Transition of the tocopherol level in parotid saliva on ingestion of supplement S; format: in vivo, human; conditions: two tablets (32.8 mg α-tocopherol) every morning for a week, then two weeks discontinuation, 3 volunteers, FIG. 8
Protocol: 3 volunteers were made to ingest orally two commercial CoQ10 supplement S containing 32.8 mg of tocopherol per two tablets as α-tocopherol at 7:00 every morning continuously for a week, and as a specimen, parotid saliva was collected from PM 4:00 to 5:00, three times, that is, before ingestion and one week after ingestion and two weeks after discontinuation of ingestion. The volunteer had the mouth rinsed with water, and kept quiet on a chair for 5 minutes, while the volunteer accumulated saliva in the oral cavity and discharged to initialize the oral cavity, followed by collecting saliva. […] The ingestion states of the supplement, that is, before ingestion and one week after ingestion, and two weeks after discontinuation of ingestion are arranged on the horizontal axis as points, and the tocopherol concentrations (hereinafter, the measured concentration of tocopherol will be referred to “tocopherol level”) in parotid saliva are arranged on the vertical axis, and transition of the tocopherol level in parotid saliva depending on states of supplements with tocopherol is shown in FIG. 8.

[4] = Chromatograms of parotid saliva specimens A, B and C (HPLC with ECD detection); format: in vivo, human; conditions: Supplement N, one tablet every morning and evening for a month (60 mg CoQ10, 20 mg α-tocopherol per day)
Protocol: In pretreatment of the specimens, 20 μl of plasma and 180 μl of ethanol (Wako Pure Chemical Industries, Ltd.: HPLC grade) were added to an autosampler vial (sampler vial PP 250 μl: Shiseido Co., Ltd.) to have a final ethanol concentration of 90% (V/V), which was centrifuged under cooling by 1000 G for 5 minutes to precipitate proteins. In the case of directly collected saliva, 150 μl of ethanol was added to 50 μl of the specimen to have a final ethanol concentration of 75% (V/V), which was centrifuged under cooling by 1000 G for 5 minutes to precipitate proteins. […]
Ubidecarenol, tocopherol, lycopene and β-carotene can be quantitatively analyzed at 600 mV. […] Therefore, CoQ10 is converted into ubidecarenol by reducing the carbonyl group to the OH group using the above-mentioned commercial online reduction column, and then detected in an oxidation mode using the amperometry-type electrochemical detector 3005 (Shiseido Co., Ltd.) or the pulse-type electrochemical detector 3016 (Shiseido Co., Ltd.) under the HPLC condition shown in FIGS. 1 and 2, allowing the bulk detection as shown in FIGS. 3 and 4. […]

| Molecule | transition of the level in parotid saliva [1] | detection in the parotid saliva ([2]; Nonpatent document No. 1) | correlation between the serum level and the whole saliva level ([2]; Nonpatent documents No. 1 and 2) | transition of the tocopherol level in parotid saliva [3] | peak in chromatogram of parotid saliva A (supplement-ingesting volunteer) compared with B (non-ingesting volunteer) [4] |
| --- | --- | --- | --- | --- | --- |
| CC1=C(/C=C/C(C)=C/C=C/C(C)=C/C=C/C=C(C)/C=C/C=C(C)/C=C/C2=C(C)CCCC2(C)C)C(C)(C)CCC1 [β-carotene] | obviously increased in the two volunteers who ingested the supplement compared with one volunteer without ingestion, and decreased by discontinuation of ingestion | could not be detected | positive correlation |  |  |
| Tocopherol |  |  |  | increased by ingestion and decreased by discontinuation of ingestion | higher peak |
| CC(C)=CCC/C(C)=C/C=C/C(C)=C/C=C/C(C)=C/C=C/C=C(C)/C=C/C=C(C)/C=C/C=C(\C)CCC=C(C)C [lycopene] | obviously increased in the two volunteers who ingested the supplement compared with one volunteer without ingestion, and decreased by discontinuation of ingestion |  |  |  |  |
